Earlier results as cited in patent US20050064563A1, “Nucleic acids for aminocoumarin biosynthesis” (priority 2001, published 2005).

Biological target: intact gyrase (bacterial DNA gyrase) (Escherichia coli, UniProt P0AES6)
Settings: intact gyrase heterotetramer; Peng et al. (1993) J. Biol. Chem. 268: 24481-24490; read-out: concentration achieving 50% inhibition of gyrase

CO[C@H]1[C@H](OC(=O)c2ccc(C)[nH]2)[C@H](O)[C@@H](Oc2ccc3c(O)c(NC(=O)c4c[nH]c(C(=O)Nc5c(O)c6ccc(O[C@H]7OC(C)(C)[C@@H](OC)[C@H](OC(=O)c8ccc(C)[nH]8)[C@@H]7O)c(C)c6oc5=O)c4C)c(=O)oc3c2C)OC1(C)C [coumermycin A1]
IC50: 4 nM
